Results as given in patent publication US20260226101A1, “PEPTIDE WITH ANTI-INFLAMMATORY AND ANTI-MICROBIAL ACTIVITY” (priority 2023, published 2026).
Ends that are not written are not given here.

Tests used:
Assay in all cases: Time-kill assay
Assay type in all cases: cell-based
[1] = test system: Staphylococcus aureus ATCC 6538; settings: S. aureus
Method: (§1) The survival of bacteria, time kill efficacy assay of IS 111 was further evaluated for activity against bacterial strain mentioned above according to CLSI reference method, with slightly modification. MICs were determined by broth microdilution assay as described above. […] Test tubes of MHB without test compound IS 111 were used as vehicle controls. Overnight cultures of the bacterial strains at cell densities of approximately 1×10^8 CFU/ml were used to inoculate both test and control tubes. The standard tube dilution method was opted to evaluate the time-kill efficacy of bacteria. Bacterial inoculum (1 mL) was diluted by adding 9 mL sterile saline solution and serially diluted up to 10^−3. […] 100 μL incubated suspension was transferred on the agar plates and spread through the spreader. Colony counts were performed after 24 h incubation at 37° C. Plates with 10-300 colonies were used for these counts, and the kill rate was determined by plotting log 10 viable counts (CFU/ml) against time. Bactericidal activity was defined as a ≥3 log 10 decreases in CFU/ml of the initial microbial population, while bacteriostatic activity was defined was defined as a <3 log 10 decrease in CFU/ml. The assay was performed in triplicate [Olufunmiso O Olajuyigbe et al., 2015; Sutthiwan Thammawat et al., 2017]
(§2) The time-kill kinetics antibacterial study of the Peptide IS 111 was carried out to assess the killing rate of the compound within a given contact time. The survival of bacteria, time kill efficacy assay of IS 111 was further evaluated for activity against Escherichia coli ATCC 8739 and Staphylococcus aureus ATCC 6538, Pseudomonas aeruginosa ATCC 9027 and Klebsiella pneumoniae ATCC 700603 according to CLSI reference method, with slightly modification. MICs were determined by broth microdilution assay as described above. […] 10. Test tubes of MHB without test compound Peptide IS 111 were used as vehicle controls. Overnight cultures of the bacterial strains at cell densities of approximately 1×10^6 CFU/ml were used to inoculate both test and control tubes.
(§3) After each interval, ten-fold dilutions were prepared with normal saline, and 100 μL incubated suspension was transferred on the agar plates and spread through the spreader. Colony counts were performed after 24 h incubation at 37° C. Plates with 10-300 colonies were used for these counts, and the kill rate was determined by plotting log 10 viable counts (CFU/ml) against time. Bactericidal activity was defined as a ≥3 log 10 decrease in CFU/ml of the initial microbial population, while bacteriostatic activity was defined as a <3 log 10 decrease in CFU/ml. The assay was performed in triplicate. The proportion of cells surviving at 60 min was calculated, as was the mean and standard deviation. Proportions of surviving cells were compared using Student's 2-tailed t-test, assuming unequal variance and differences were considered significant where p≤0.05.

[2] = test system: Klebsiella pneumoniae ATCC 700603; settings: K. pneumoniae
Method: as §1, §2, §3

[3] = test system: Pseudomonas aeruginosa ATCC 9027; settings: P. aeruginosa
Method: as §1, §2, §3

## FAKKFAK [IS 111, Phe-Ala-Lys-Lys-Phe-Ala-Lys]
[1]; 0.5 × MIC, 0 h
  Viable count: 5.1 ± 0.65 1 × 10^5 CFU/ml
[1]; 0.5 × MIC, 1 h
  Viable count: 4.6 ± 0.48 1 × 10^5 CFU/ml
[1]; 0.5 × MIC, 2 h
  Viable count: 3.8 ± 0.68 1 × 10^5 CFU/ml
[1]; 0.5 × MIC, 3 h
  Viable count: 3.2 ± 0.58 1 × 10^5 CFU/ml
[1]; 0.5 × MIC, 4 h
  Viable count: 2.5 ± 0.58 1 × 10^5 CFU/ml
[1]; 0.5 × MIC, 5 h
  Viable count: 2.1 ± 0.43 1 × 10^5 CFU/ml
[1]; 0.5 × MIC, 12 h
  Viable count: 1.8 ± 0.43 1 × 10^5 CFU/ml
[1]; 0.5×MIC (1.56 μg/ml), 24 h
  Reduction in viability: 2 log 10 CFU/ml
[1]; 0.5×MIC, 24 h
  Type of activity (bacteriostatic or bactericidal): bacteriostatic
  Viable count: 1.2 ± 0.23 1 × 10^5 CFU/ml
[1]; 1 × MIC, 0 h
  Viable count: 5.3 ± 0.10 1 × 10^5 CFU/ml
[1]; 1 × MIC, 1 h
  Viable count: 3.7 ± 0.43 1 × 10^5 CFU/ml
[1]; 1 × MIC, 2 h
  Viable count: 1.6 ± 0.48 1 × 10^5 CFU/ml
[1]; 1 × MIC, 3 h
  Viable count: 0.7 ± 0.15 1 × 10^5 CFU/ml
[1]; 1 × MIC, 4 h
  Viable count: 0.3 ± 0.15 1 × 10^5 CFU/ml
[1]; 1 × MIC, 5 h
  Viable count: 0.2 ± 0.00 1 × 10^5 CFU/ml
[1]; 1 × MIC, 12 h
  Viable count: 0 1 × 10^5 CFU/ml
[1]; 1 × MIC, 24 h
  Viable count: 0 1 × 10^5 CFU/ml
[1]; 1×MIC (3.13 μg/ml)
  Time to bacteriostatic activity: ≤ 12 h
[1]; 5 × MIC, 0 h
  Viable count: 5.6 ± 0.30 1 × 10^5 CFU/ml
[1]; 5 × MIC, 1 h
  Viable count: 0.8 ± 0.13 1 × 10^5 CFU/ml
[1]; 5 × MIC, 2 h
  Viable count: 0.4 ± 0.08 1 × 10^5 CFU/ml
[1]; 5 × MIC, 3 h
  Viable count: 0 1 × 10^5 CFU/ml
[1]; 5 × MIC, 4 h
  Viable count: 0 1 × 10^5 CFU/ml
[1]; 5 × MIC, 5 h
  Viable count: 0 1 × 10^5 CFU/ml
[1]; 5 × MIC, 12 h
  Viable count: 0 1 × 10^5 CFU/ml
[1]; 5 × MIC, 24 h
  Viable count: 0 1 × 10^5 CFU/ml
[1]; 5×MIC (15.6 μg/ml)
  Time to bacteriostatic activity: ≤ 2 h
[2]; 0.5 × MIC, 0 h
  Viable count: 4.8 ± 0.50 1 × 10^5 CFU/ml
[2]; 0.5 × MIC, 1 h
  Viable count: 4.2 ± 0.35 1 × 10^5 CFU/ml
[2]; 0.5 × MIC, 2 h
  Viable count: 3.4 ± 0.55 1 × 10^5 CFU/ml
[2]; 0.5 × MIC, 3 h
  Viable count: 2.9 ± 0.45 1 × 10^5 CFU/ml
[2]; 0.5 × MIC, 4 h
  Viable count: 2.1 ± 0.48 1 × 10^5 CFU/ml
[2]; 0.5 × MIC, 5 h
  Viable count: 1.7 ± 0.30 1 × 10^5 CFU/ml
[2]; 0.5 × MIC, 12 h
  Viable count: 1.5 ± 0.33 1 × 10^5 CFU/ml
[2]; 0.5×MIC (3.13 μg/ml), 24 h
  Reduction in viability: < 1 log 10 CFU/ml
[2]; 0.5×MIC, 24 h
  Type of activity (bacteriostatic or bactericidal): bacteriostatic
  Viable count: 0.8 ± 0.13 1 × 10^5 CFU/ml
[2]; 1 × MIC, 0 h
  Viable count: 5.1 ± 0.23 1 × 10^5 CFU/ml
[2]; 1 × MIC, 1 h
  Viable count: 4.0 ± 0.18 1 × 10^5 CFU/ml
[2]; 1 × MIC, 2 h
  Viable count: 1.9 ± 0.40 1 × 10^5 CFU/ml
[2]; 1 × MIC, 3 h
  Viable count: 1.2 ± 0.15 1 × 10^5 CFU/ml
[2]; 1 × MIC, 4 h
  Viable count: 0.6 ± 0.03 1 × 10^5 CFU/ml
[2]; 1 × MIC, 5 h
  Viable count: 0.5 ± 0.05 1 × 10^5 CFU/ml
[2]; 1 × MIC, 12 h
  Viable count: 0.2 ± 0.15 1 × 10^5 CFU/ml
[2]; 1 × MIC, 24 h
  Viable count: 0 1 × 10^5 CFU/ml
[2]; 1×MIC (6.25 μg/ml)
  Time to bacteriostatic activity: ≤ 24 h
[2]; 5 × MIC, 0 h
  Viable count: 5.6 ± 0.18 1 × 10^5 CFU/ml
[2]; 5 × MIC, 1 h
  Viable count: 1.8 ± 0.13 1 × 10^5 CFU/ml
[2]; 5 × MIC, 2 h
  Viable count: 0.9 ± 0.08 1 × 10^5 CFU/ml
[2]; 5 × MIC, 3 h
  Viable count: 0.6 ± 0.08 1 × 10^5 CFU/ml
[2]; 5 × MIC, 4 h
  Viable count: 0.4 ± 0.05 1 × 10^5 CFU/ml
[2]; 5 × MIC, 5 h
  Viable count: 0 1 × 10^5 CFU/ml
[2]; 5 × MIC, 12 h
  Viable count: 0 1 × 10^5 CFU/ml
[2]; 5 × MIC, 24 h
  Viable count: 0 1 × 10^5 CFU/ml
[2]; 5×MIC (31.25 μg/ml)
  Time to bacteriostatic activity: ≤ 5 h
[3]; 0.5 × MIC, 0 h
  Viable count: 6.3 ± 0.30 1 × 10^5 CFU/ml
[3]; 0.5 × MIC, 1 h
  Viable count: 5.4 ± 0.18 1 × 10^5 CFU/ml
[3]; 0.5 × MIC, 2 h
  Viable count: 4.9 ± 0.15 1 × 10^5 CFU/ml
[3]; 0.5 × MIC, 3 h
  Viable count: 4.1 ± 0.20 1 × 10^5 CFU/ml
[3]; 0.5 × MIC, 4 h
  Viable count: 3.5 ± 0.15 1 × 10^5 CFU/ml
[3]; 0.5 × MIC, 5 h
  Viable count: 2.8 ± 0.23 1 × 10^5 CFU/ml
[3]; 0.5 × MIC, 12 h
  Viable count: 2.4 ± 0.15 1 × 10^5 CFU/ml
[3]; 0.5×MIC (1.56 μg/ml), 24 h
  Reduction in viability: 1 log 10 CFU/ml
[3]; 0.5×MIC, 24 h
  Type of activity (bacteriostatic or bactericidal): bacteriostatic
  Viable count: 2.1 ± 0.25 1 × 10^5 CFU/ml
[3]; 1 × MIC, 0 h
  Viable count: 6.4 ± 0.15 1 × 10^5 CFU/ml
[3]; 1 × MIC, 1 h
  Viable count: 4.0 ± 0.30 1 × 10^5 CFU/ml
[3]; 1 × MIC, 2 h
  Viable count: 1.9 ± 0.20 1 × 10^5 CFU/ml
[3]; 1 × MIC, 3 h
  Viable count: 1.0 ± 0.08 1 × 10^5 CFU/ml
[3]; 1 × MIC, 4 h
  Viable count: 0.5 ± 0.08 1 × 10^5 CFU/ml
[3]; 1 × MIC, 5 h
  Viable count: 0.2 ± 0.05 1 × 10^5 CFU/ml
[3]; 1 × MIC, 12 h
  Viable count: 0.0 1 × 10^5 CFU/ml
[3]; 1 × MIC, 24 h
  Viable count: 0.0 1 × 10^5 CFU/ml
[3]; 1×MIC (3.13 μg/ml)
  Time to bacteriostatic activity: ≤ 12 h
[3]; 5 × MIC, 0 h
  Viable count: 6.4 ± 0.15 1 × 10^5 CFU/ml
[3]; 5 × MIC, 1 h
  Viable count: 0.4 ± 0.10 1 × 10^5 CFU/ml
[3]; 5 × MIC, 2 h
  Viable count: 0.0 1 × 10^5 CFU/ml
[3]; 5 × MIC, 3 h
  Viable count: 0.0 1 × 10^5 CFU/ml
[3]; 5 × MIC, 4 h
  Viable count: 0.0 1 × 10^5 CFU/ml
[3]; 5 × MIC, 5 h
  Viable count: 0.0 1 × 10^5 CFU/ml
[3]; 5 × MIC, 12 h
  Viable count: 0.0 1 × 10^5 CFU/ml
[3]; 5 × MIC, 24 h
  Viable count: 0.0 1 × 10^5 CFU/ml
